Data taken from patent publication US4454120A, “Analgesic dipeptide amides and method of use and compositions thereof” (Sterling Drug Inc., priority 1982, dated 1984).

How the values were obtained:
[1] = test system: guinea pig ileum longitudinal muscle; experiment: Guinea pig ileum test (inhibition of electrically induced twitch); format: cell-based; settings: ratio of IC50 of reference Met5-enkephalin (=100) to IC50 of test compound in the same preparation, averaged, usually N=4
Description: Adult male guinea pigs (Charles River, Hartley strain) weighing 300-500 g. are decapitated, and the terminal ileum is exposed by reflecting the overlying cecum, severed at the ileocecal juncture, and removed while cutting the mesenteric attachments to avoid excessive traction on the tissue. The ileum (about 30 cm. in length) is transferred to a beaker containing warm modified Krebs-Henseleit solution (118 mM sodium chloride, 4.75 mM potassium chloride, 2.54 mM calcium chloride, 1.19 mM potassium dihydrogen phosphate, 1.2 mM magnesium sulfate, 25 mM sodium bicarbonate, 11 mM glucose, 20 μM choline chloride and 0.125 μM pyrilamine maleate). The terminal (aboral) portion (about 10 cm. in length) is discarded, and segments (3-4 cm. in length) are cut from the remainder and gently slid onto a glass rod (5-6 mm. in diameter) and arranged so that the meseneteric attachment is in a straight line. A cotton swab moistened in the solution is then carefully used to separate the longitudinal muscle from the underlying circular muscle. The longitudinal muscle and adhering myenteric plexus is then gently removed from the remaining tissue with forceps.
Strips of this prepared longitudinal muscle are mounted in a double-jacketed organ bath (5 ml.) under tension (1.0 g.), connected to isometric transducers (Grass FT .03), bathed in the modified Krebs-Henseleit solution described above, aerated with oxygen-carbon dioxide (95:5) and maintained at 37° C.
Stimulators (Grass S-44) are set to deliver repetitive monophasic square wave field stimulation (supramaximal voltage, 0.10 Hz., 0.25 msec. duration) through platinum ring electrodes at the top and bottom of the bath. Regular contractions of the muscle, which result from electrically-induced liberation of acetylcholine from postganglionic parasympathetic nerves, are recorded on a polygraph (Grass model 5). Following tissue equilibration (45-60 min.) and repeated washing (every 10 min.) an aqueous solution of a reference or test compound is added to the bath in a microliter volume (1.25-250 μl) and reductions in muscle twitch height are recorded. More compound can be added […] first washing the preparation.
From the results a half-mazimal inhibitory concentration (IC50) value for the compound is computed by regression analysis of a linear plot of logarithm of concentration against percent of inhibition of twitch height (probits). The ratio of the IC50 value of a reference compound to that of a test compound tested in the same preparation is the molar potency ratio. Usually four preparations are tested simultaneously by the same person (N=4), and the resulting four molar potency ratios are averaged.
The following results were obtained using the examples as test compounds and Met^5 -enkephalin as the reference compound.

Male Swiss-Webster mice = experiment: Mouse acetylcholine writhing test; format: in vivo; settings: for ED50: Mus musculus, sc, subcutaneous, approximate values
Description: Male Swiss-Webster mice each weighing 18-24 g. are treated subcutaneously (10 ml./kg. injection volume) or orally with the test compound in an aqueous vehicle. Twenty minutes thereafter each mouse is injected intraperitoneally with acetylcholine (3.2 mg./kg.) in aqueous sodium chloride (0.9%). This dose of acetylcholine causes one or more characteristic writhes in the two minute period following injection in control mice which receive the aqueous vehicle not containing the test compound. […] Test compounds are screened at doses of 100 and 30 mg./kg. subcutaneously and 300 and 100 mg./kg. orally using 15 mice at each dose level. ED50 values for active compounds are estimated by probit analysis of quantal scores at four or more dose levels using 15 mice at each dose level.

guinea pig ileum = settings: cited from earlier work
mouse vas deferens = settings: cited from earlier work
rat = rat tail flick, relative to morphine, cited from earlier work
opiate receptor = settings: rat brain membranes, relative to morphine; cited from earlier work

| Molecule | Average Molar Potency Ratio [1] | further results |
| --- | --- | --- |
| N-methyl-L-tyrosyl-N-(3-phenylpropyl)-D-methioninamide S-oxide monohydrochloride hemihydrate [Example 6] | 360 |  |
| CN[C@@H](Cc1ccc(O)cc1)C(=O)N[C@@H](CCSC)C(=O)NCCCc1ccccc1.Cl.O [Example 5, N-methyl-L-tyrosyl-N-(3-phenylpropyl)-L-methioninamide monohydrochloride hydrate (4:1)] | 180 | 95% confidence limits of subcutaneous ED50 (Male Swiss-Webster mice): 5.0 to 12 mg/kg; subcutaneous ED50 (Male Swiss-Webster mice; acetylcholine 3.2 mg./kg. i.p. 20 min after the compound, probit analysis): 8.5 mg/kg |
| CN(C(=O)[C@@H](N)Cc1ccc(O)cc1)[C@H](CC[S+](C)[O-])C(=O)NCCCc1ccccc1.Cl.O (stereo partly drawn) [Example 8, L-tyrosyl-N^2-methyl-N-(3-phenylpropyl)-D-methioninamide S-oxide monhydrochloride monohydrate] | 650 |  |
| Met^5 -enkephalin [reference compound] | 100 |  |
| CSCC[C@@H](NC(=O)[C@@H](N)Cc1ccc(O)cc1)C(=O)NCCCc1ccccc1.Cl.O [Example 1, L-tyrosyl-N-(3-phenylpropyl)-D-methioninamide monohydrochloride monohydrate] | 279 | ED50 (Male Swiss-Webster mice): > 30 mg/kg |
| CN(CCCc1ccccc1)C(=O)[C@@H](CC[S+](C)[O-])NC(=O)[C@@H](N)Cc1ccc(O)cc1.Cl.O (stereo partly drawn) [Example 4, L-tyrosyl-N-methyl-N-(3-phenylpropyl)-D-methioninamide S-oxide monohydrochloride monohydrate] | 5 | ED50 (Male Swiss-Webster mice): > 30 mg/kg |
| L-tyrosyl-N-(3-phenylpropyl)-D-methioninamide S-oxide monohydrochloride sesquihydrate [Example 2] | 1180 |  |
| Cl.NC(=O)CC[C@@H](NC(=O)[C@@H](N)Cc1ccc(O)cc1)C(=O)NCCCc1ccccc1.O [Example 9, L-tyrosyl-N^1-(3-phenylpropyl)-D-glutamamide monohydrochloride hydrate (4:3)] | 47 |  |
| L-tyrosyl-N-(3-phenylpropyl)-D-serinamide hydrate (3:2) [Example 10] | 15 |  |
| CSCC[C@@H](NC(=O)[C@@H](N)Cc1ccc(O)cc1)C(=O)N(C)CCCc1ccccc1.Cl [Example 3, L-tyrosyl-N-methyl-N-(3-phenylpropyl)-D-methioninamide monohydrochloride] | 19 |  |
| C[C@@H](NC(=O)[C@@H](N)Cc1ccc(O)cc1)C(=O)NCCNCCc1ccccc1 [HTyrD-AlaNH(CH2)2 NH(CH2)2 Phenyl] |  | potency relative to Met-enkephalin (guinea pig ileum): < 1%; potency relative to Met-enkephalin (mouse vas deferens): < 1% |
| C[C@@H](NC(=O)[C@@H](N)Cc1ccc(O)cc1)C(N)=O [H-Tyr-D-Ala-NH2] |  | times less potent than morphine, intravenously (rat; intravenous): greater than 10 times; times less potent than morphine, intraventricularly (rat; intraventricular): 200 times; times less affinity than morphine (opiate receptor): 830 times |
| CSCC[C@H](C(=O)NCCCc1ccccc1)N(C)C(=O)[C@@H](N)Cc1ccc(O)cc1.Cl [Example 7, L-tyrosyl-N^2-methyl-N-(3-phenylpropyl)-D-methioninamide monohydrochloride] | 260 |  |
